Calls of active or inactive are those of the source. The rule behind the calls is not given here.
Molecular target: cAMP-dependent protein kinase catalytic subunit alpha (Homo sapiens) (UniProt P17612)
Assay: PubChem AID 548
Details: Purified PKA, Kemptide, Kinase-Glo ATP luminescence

Row | SMILES | IC50
1 | Nc1c(S(=O)(=O)c2cccc(Cl)c2)c2nc3ccccc3nc2n1/N=C/c1ccc(O)c(O)c1 | > 59.6 µM (inactive)
2 | O/N=C/c1c[nH]c2ccccc12 | 34.4 µM

Reference: PubChem BioAssay AID548 (The Scripps Research Institute Molecular Screening Center, 2006)
